# Reference: ChEMBL document CHEMBL1153608, “Synthesis, antimalarial evaluation and molecular modeling studies of hydroxyethylpiperazines, potential aspartyl protease inhibitors, part 2” (Eur J Med Chem, 2009)
# How the values were obtained:
# Plasmodium falciparum [1] = experiment: Antimalarial activity against chloroquine-sensitive Plasmodium falciparum 3D7 by [3H]hypoxanthine uptake; format: functional, organism-based
# Plasmodium falciparum [2] = experiment: Antimalarial activity against Plasmodium falciparum W2 by [3H]hypoxanthine uptake; format: functional, organism-based
# [3] = Cytotoxicity against mouse J774 cells assessed as cell viability at 0.1 ug/mL after 24 hrs by MTT assay; format: cell-based; details: read-out: Activity
# [4] = Cytotoxicity against mouse J774 cells assessed as cell viability at 1 ug/mL after 24 hrs by MTT assay; format: cell-based; details: read-out: Activity
# [5] = Cytotoxicity against mouse J774 cells assessed as cell viability at 10 ug/mL after 24 hrs by MTT assay; format: cell-based; details: read-out: Activity
# [6] = Cytotoxicity against mouse J774 cells assessed as cell viability at 100 ug/mL after 24 hrs by MTT assay; format: cell-based; details: read-out: Activity
SMILES,IC50 (Plasmodium falciparum [1]) [µM],IC50 (Plasmodium falciparum [2]) [µM],"viability at 24 h, 0.1 ug/mL [3] [%]","viability at 24 h, 1 ug/mL [4] [%]","viability at 24 h, 10 ug/mL [5] [%]","viability at 24 h, 100 ug/mL [6] [%]"
O=S(=O)(N[C@@H](Cc1ccccc1)[C@H](O)CN1CCN(Cc2ccc3c(c2)OCO3)CC1)c1ccc(Br)cc1,5.7,5.6,100,100,96,5
O=C(N[C@@H](Cc1ccccc1)[C@H](O)CN1CCN(Cc2ccc3c(c2)OCO3)CC1)c1c(Cl)cccc1Cl,,55.5,100,90,84,43
O=C(N[C@@H](Cc1ccccc1)[C@H](O)CN1CCN(Cc2ccc3c(c2)OCO3)CC1)c1c(F)cccc1F,,47.4,85,87,83,51
Nc1ccc(S(=O)(=O)N[C@@H](Cc2ccccc2)[C@H](O)CN2CCN(Cc3ccc4c(c3)OCO4)CC2)cc1,4.6,4.8,100,100,99,55
Cc1ccc(S(=O)(=O)N[C@@H](Cc2ccccc2)[C@H](O)CN2CCN(Cc3ccc4c(c3)OCO4)CC2)cc1,,16.9,100,100,98,49
O=C(N[C@@H](Cc1ccccc1)[C@H](O)CN1CCN(Cc2ccc3c(c2)OCO3)CC1)c1ccccc1,,69.4,100,100,91,38
COc1ccc(S(=O)(=O)N[C@@H](Cc2ccccc2)[C@H](O)CN2CCN(Cc3ccc4c(c3)OCO4)CC2)cc1,,34.3,100,99,90,12
Cc1ccc(S(=O)(=O)N[C@@H](Cc2ccccc2)[C@H](O)CN2CCN(Cc3ccc([N+](=O)[O-])cc3)CC2)cc1,,> 90,91,100,93,92
COc1ccc(CN2CCN(C[C@@H](O)[C@H](Cc3ccccc3)NS(=O)(=O)c3ccc(C)cc3)CC2)cc1OC,,> 90,100,100,92,9
O=C(N[C@@H](Cc1ccccc1)[C@H](O)CN1CCN(Cc2ccc3c(c2)OCO3)CC1)c1cc(Cl)cc(Cl)c1,,47.2,98,100,98,93
Cc1ccc(S(=O)(=O)N[C@@H](Cc2ccccc2)[C@H](O)CN2CCN(Cc3ccc(F)cc3)CC2)cc1,,43,100,100,92,15
Cc1ccc(S(=O)(=O)N[C@@H](Cc2ccccc2)[C@H](O)CN2CCN(Cc3ccc(Cl)cc3)CC2)cc1,,35.1,100,98,90,22
O=[N+]([O-])c1ccc(S(=O)(=O)N[C@@H](Cc2ccccc2)[C@H](O)CN2CCN(Cc3ccc4c(c3)OCO4)CC2)cc1,,44,100,100,100,40
COc1ccc(CN2CCN(C[C@@H](O)[C@H](Cc3ccccc3)NS(=O)(=O)c3ccc(C)cc3)CC2)cc1,,> 90,100,90,84,6
O=C(N[C@@H](Cc1ccccc1)[C@H](O)CN1CCN(Cc2ccc3c(c2)OCO3)CC1)c1ccc2c(c1)OCO2,,25.4,100,100,95,61
O=S(=O)(N[C@@H](Cc1ccccc1)[C@H](O)CN1CCN(Cc2ccc3c(c2)OCO3)CC1)c1ccc(F)cc1,,42.5,100,94,83,4
Cc1ccc(S(=O)(=O)N[C@@H](Cc2ccccc2)[C@H](O)CN2CCN(Cc3ccc(N)cc3)CC2)cc1,,> 90,100,90,77,10
Cc1ccc(S(=O)(=O)N[C@@H](Cc2ccccc2)[C@H](O)CN2CCN(Cc3ccccc3)CC2)cc1,,> 90,100,86,88,5
Cc1c(O)cccc1C(=O)N[C@@H](Cc1ccccc1)[C@H](O)CN1CCN(Cc2ccc3c(c2)OCO3)CC1,,5.9,100,75,8,8
